# Measured values reported in patent US12071404B2, “Aza (indole)-, benzothiophene-, and benzofuran-3-sulfonamides” (UCB Pharma GmbH, priority 2016, dated 2024).
# How the values were obtained:
# GPR17 [1] = target: T1, GPR17 (Homo sapiens, UniProt Q13304); experiment: Calcium mobilization functional assay (GPR17 Ca2+ assay); format: cell-based; set-up: host or cells: Flp-In T-REx CHO; conditions: CHO hGPR17 cells, inhibition of 50 nM MDL29,951, Calcium 5 dye, FLIPR; read-out: Ca2+ assay pIC50 (converted)
# T1 sequence (Q13304 whole entry): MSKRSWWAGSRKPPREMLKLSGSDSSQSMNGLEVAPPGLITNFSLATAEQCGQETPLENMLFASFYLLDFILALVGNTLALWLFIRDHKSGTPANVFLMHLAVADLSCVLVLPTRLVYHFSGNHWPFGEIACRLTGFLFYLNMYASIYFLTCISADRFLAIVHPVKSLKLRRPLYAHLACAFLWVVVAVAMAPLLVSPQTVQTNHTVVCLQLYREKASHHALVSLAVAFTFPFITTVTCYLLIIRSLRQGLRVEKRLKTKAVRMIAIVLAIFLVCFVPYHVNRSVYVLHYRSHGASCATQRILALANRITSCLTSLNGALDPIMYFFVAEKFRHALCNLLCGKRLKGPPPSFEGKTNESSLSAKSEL
# Outline: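 pIC50 values were fitted with a 4-parameter logistic curve. They reflect test-compound inhibition of cytosolic Ca2+ release evoked by 50 nM MDL29,951, tracked as Calcium 5 fluorescence at room temperature. Cells were CHO Flp-In T-REx stably carrying human GPR17, induced with doxycycline 1 μg/mL for 16-20 h.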
# GPR17 [2] = target: T1, GPR17; experiment: cAMP accumulation functional assay (HTRF, Schild analysis); format: cell-based; set-up: host or cells: Flp-In T-REx CHO; conditions: CHO hGPR17 cells, Schild analysis vs MDL29,951, 5 μM forskolin, read-out: cAMP assay pA2 (converted)
# Outline: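 Antagonist affinity (pA2) came from Schild plots of dose ratios, based on MDL29,951 concentration-response curves fitted by 4-parameter logistic. The read-out was HTRF cAMP in 5,000 doxycycline-induced CHO hGPR17 cells per well, with 30 min compound preincubation and 60 min stimulation, at room temperature in pH 7.4 buffer.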
Structure (SMILES),IC50 (GPR17 [1]) [nM],Kb (GPR17 [2]) [nM]
"O=S(=O)(Nc1cc2nsnc2cc1F)c1c[nH]c2c1ccc1ccccc12 [Compound I-160, N-(6-fluoro-2,1,3-benzothiadiazol-5-yl)-1H-benzo[g]indole-3-sulfonamide]",< 3.16,3.16 to 31.6
"O=S(=O)(Nc1ccc(I)cn1)c1c[nH]c2cc(Cl)ccc12 [Compound I-280, 6-chloro-N-(5-iodopyridin-2-yl)-1H-indole-3-sulfonamide]",3.16 to 31.6,3.16 to 31.6
"N#Cc1ccc(NS(=O)(=O)c2c[nH]c3cc(-c4cccs4)ccc23)c(F)c1 [Compound I-235, N-(4-cyano-2-fluorophenyl)-6-(thiophen-2-yl)-1H-indole-3-sulfonamide]",3.16 to 31.6,< 3.16
"C#Cc1ccc(NS(=O)(=O)c2c[nH]c3nc(OC)ccc23)c(F)c1 [Compound I-283, N-(4-ethynyl-2-fluorophenyl)-6-methoxy-1H-pyrrolo[2,3-b]pyridine-3-sulfonamide]",3.16 to 31.6,3.16 to 31.6
"O=S(=O)(Nc1cc2nsnc2cc1F)c1c[nH]c2cc(Cl)ccc12 [Compound I-162, 6-chloro-N-(6-fluoro-2,1,3-benzothiadiazol-5-yl)-1H-indole-3-sulfonamide]",< 3.16,< 3.16
"N#CCOc1cc(F)c(NS(=O)(=O)c2coc3cc(Cl)ccc23)cc1F [Compound I-342, 6-chloro-N-[4-(cyanomethoxy)-2,5-difluorophenyl]-1-benzofuran-3-sulfonamide]",3.16 to 31.6,3.16 to 31.6
"O=S(=O)(Nc1ccc(S(F)(F)(F)(F)F)cc1F)c1c[nH]c2nc(Cl)ccc12 [Compound I-295, 6-chloro-N-[2-fluoro-4-(pentafluoro-lambda-6-sulfanyl)phenyl]-1H-pyrrolo[2,3-b]pyridine-3-sulfonamide]",3.16 to 31.6,3.16 to 31.6
"O=S(=O)(Nc1cc(F)c(Cl)cc1F)c1c[nH]c2c(OCC(F)F)c(Cl)ccc12 [Compound I-262, 6-chloro-N-(4-chloro-2,5-difluorophenyl)-7-(2,2-difluoroethoxy)-1H-indole-3-sulfonamide]",3.16 to 31.6,< 3.16
"O=S(=O)(Nc1cc(F)c(F)cc1F)c1c[nH]c2c1ccc1cccnc12 [Compound I-67, N-(2,4,5-trifluorophenyl)-1H-pyrrolo[3,2-h]quinoline-3-sulfonamide]",3.16 to 31.6,3.16 to 31.6
"O=S(=O)(Nc1cccc2nonc12)c1c[nH]c2c1ccc1cccnc12 [Compound I-119, N-(2,1,3-benzoxadiazol-4-yl)-1H-pyrrolo[3,2-h]quinoline-3-sulfonamide]",3.16 to 31.6,3.16 to 31.6
"N#Cc1ccc(NS(=O)(=O)c2c[nH]c3cc(OCC4CC4)ccc23)c(F)c1 [Compound I-220, N-(4-cyano-2-fluorophenyl)-6-(cyclopropylmethoxy)-1H-indole-3-sulfonamide]",3.16 to 31.6,3.16 to 31.6
"O=S(=O)(Nc1cccc2n[se]nc12)c1c[nH]c2cc(Cl)ccc12 [Compound I-142, N-(2,1,3-benzoselenadiazol-4-yl)-6-chloro-1H-indole-3-sulfonamide]",< 3.16,< 3.16
"O=S(=O)(Nc1ccc(Cl)cc1F)c1c[nH]c2c1ccc1cccnc12 [Compound I-65, N-(4-chloro-2-fluorophenyl)-1H-pyrrolo[3,2-h]quinoline-3-sulfonamide]",3.16 to 31.6,3.16 to 31.6
"O=C1OCc2cc(F)c(NS(=O)(=O)c3c[nH]c4cc(Cl)ccc34)cc21 [Compound I-243, 6-chloro-N-(6-fluoro-3-oxo-1,3-dihydro-2-benzofuran-5-yl)-1H-indole-3-sulfonamide]",3.16 to 31.6,3.16 to 31.6
"C#Cc1ccc(NS(=O)(=O)c2c[nH]c3c2ccc2cccnc23)c(F)c1 [Compound I-306, N-(4-ethynyl-2-fluorophenyl)-1H-pyrrolo[3,2-h]quinoline-3-sulfonamide]",3.16 to 31.6,< 3.16
"N#CCc1ccc(NS(=O)(=O)c2c[nH]c3cc(Cl)ccc23)c(F)c1 [Compound I-206, 6-chloro-N-[4-(cyanomethyl)-2-fluorophenyl]-1H-indole-3-sulfonamide]",3.16 to 31.6,< 3.16
"COc1cc(Cl)c(F)cc1NS(=O)(=O)c1c[nH]c2cc(Cl)ccc12 [Compound I-208, 6-chloro-N-(4-chloro-5-fluoro-2-methoxyphenyl)-1H-indole-3-sulfonamide]",> 31.6,3.16 to 31.6
"O=S(=O)(Nc1ccc(I)cc1F)c1c[nH]c2nc(Br)ccc12 [Compound I-104, 6-bromo-N-(2-fluoro-4-iodophenyl)-1H-pyrrolo[2,3-b]pyridine-3-sulfonamide]",< 3.16,< 3.16
"Cc1cnc(NS(=O)(=O)c2c[nH]c3cc(Cl)ccc23)c(F)c1 [Compound I-279, 6-chloro-N-(3-fluoro-5-methylpyridin-2-yl)-1H-indole-3-sulfonamide]",3.16 to 31.6,3.16 to 31.6

Structure (SMILES),IC50 (GPR17 [1]) [nM],Kb (GPR17 [2]) [nM]
"COc1ccc2c(S(=O)(=O)Nc3cc(F)c(C#N)cc3F)c[nH]c2c1 [Compound I-291, N-(4-cyano-2,5-difluorophenyl)-6-methoxy-1H-indole-3-sulfonamide]",< 3.16,< 3.16
"N#Cc1ccc(NS(=O)(=O)c2c[nH]c3cc(-c4ccccc4)ccc23)c(F)c1 [Compound I-233, N-(4-cyano-2-fluorophenyl)-6-phenyl-1H-indole-3-sulfonamide]",3.16 to 31.6,> 31.6
"COc1nc(NS(=O)(=O)c2c[nH]c3cc(Cl)ccc23)c(F)cc1Cl [Compound I-254, 6-chloro-N-(5-chloro-3-fluoro-6-methoxypyridin-2-yl)-1H-indole-3-sulfonamide]",< 3.16,< 3.16
"CCOC(=O)C1CC1c1cc(F)c(NS(=O)(=O)c2c[nH]c3cc(Cl)ccc23)nc1F (centres unmarked) [Compound I-359, ethyl 2-(6-{[(6-chloro-1H-indol-3-yl)sulfonyl]amino}-2,5-difluoropyridin-3-yl)cyclopropanecarboxylate]",3.16 to 31.6,3.16 to 31.6
"O=S(=O)(Nc1cc(F)c(I)cc1F)c1c[nH]c2cc(Cl)ccc12 [Compound I-308, 6-chloro-N-(2,5-difluoro-4-iodophenyl)-1H-indole-3-sulfonamide]",< 3.16,< 3.16
"COc1cc(C#N)ccc1NS(=O)(=O)c1c[nH]c2cc(Cl)ccc12 [Compound I-126, 6-chloro-N-(4-cyano-2-methoxyphenyl)-1H-indole-3-sulfonamide]",3.16 to 31.6,3.16 to 31.6
"CC(C)c1ccc2c(S(=O)(=O)Nc3ccc(C#N)cc3F)c[nH]c2c1 [Compound I-170, N-(4-cyano-2-fluorophenyl)-6-(propan-2-yl)-1H-indole-3-sulfonamide]",< 3.16,< 3.16
"N#Cc1ccc2c(S(=O)(=O)Nc3cc(F)c(Cl)cc3F)c[nH]c2c1 [Compound I-277, N-(4-chloro-2,5-difluorophenyl)-6-cyano-1H-indole-3-sulfonamide]",3.16 to 31.6,< 3.16
"O=S(=O)(Nc1cc(F)ccc1F)c1c[nH]c2nc(Cl)ccc12 [Compound I-90, 6-chloro-N-(2,5-difluorophenyl)-1H-pyrrolo[2,3-b]pyridine-3-sulfonamide]",> 31.6,> 31.6
"O=S(=O)(Nc1cccc2nsnc12)c1c[nH]c2c1ccc1cccnc12 [Compound I-73, N-(2,1,3-benzothiadiazol-4-yl)-1H-pyrrolo[3,2-h]quinoline-3-sulfonamide]",3.16 to 31.6,< 3.16
"O=S(=O)(Nc1cc(F)c(Cl)cc1F)c1c[nH]c2cc3c(cc12)OCO3 [Compound I-271, N-(4-chloro-2,5-difluorophenyl)-5H-[1,3]dioxolo[4,5-f]indole-7-sulfonamide]",< 3.16,< 3.16
"COc1c(Cl)ccc2c(S(=O)(=O)Nc3nc(F)c(Cl)cc3F)c[nH]c12 [Compound I-310, 6-chloro-N-(5-chloro-3,6-difluoropyridin-2-yl)-7-methoxy-1H-indole-3-sulfonamide]",< 3.16,< 3.16
"O=S(=O)(Nc1cc(F)c(Br)cc1F)c1coc2cc(Cl)ccc12 [Compound I-259, N-(4-bromo-2,5-difluorophenyl)-6-chloro-1-benzofuran-3-sulfonamide]",3.16 to 31.6,< 3.16
"N#Cc1ccc(NS(=O)(=O)c2c[nH]c3c2ccc2ccccc23)cc1 [Compound I-159, N-(4-cyanophenyl)-1H-benzo[g]indole-3-sulfonamide]",3.16 to 31.6,3.16 to 31.6
"O=S(=O)(Nc1ccc(Cl)cc1F)c1c[nH]c2cc(Cl)ccc12 [Compound I-141, 6-chloro-N-(4-chloro-2-fluorophenyl)-1H-indole-3-sulfonamide]",3.16 to 31.6,< 3.16
"N#Cc1ccc(NS(=O)(=O)c2c[nH]c3c2ccc2ccccc23)c(F)c1 [Compound I-152, N-(4-cyano-2-fluorophenyl)-1H-benzo[g]indole-3-sulfonamide]",< 3.16,< 3.16
"C#Cc1ccc(NS(=O)(=O)c2c[nH]c3nc(Br)ccc23)cc1 [Compound I-85, 6-bromo-N-(4-ethynylphenyl)-1H-pyrrolo[2,3-b]pyridine-3-sulfonamide]",3.16 to 31.6,3.16 to 31.6
"O=S(=O)(Nc1cc(F)c(F)cc1F)c1c[nH]c2nc(Cl)ccc12 [Compound I-223, 6-chloro-N-(2,4,5-trifluorophenyl)-1H-pyrrolo[2,3-b]pyridine-3-sulfonamide]",3.16 to 31.6,> 31.6
